Test results from patent publication EP0624593A2, “Bile acid derivates, a method for their production and their use as medicines” (HOECHST AKTIENGESELLSCHAFT, priority 1993, dated 1994).

Target: T1, Na⁺-abhängiges Gallensäuretransportsystem (Bürstensaummembranvesikel des Ileums) (Oryctolagus cuniculus, UniProt Q28727)
T1 construct: Präparation von Bürstensaummembranvesikeln aus dem Ileum von Kaninchen; from tissue; host or cells: Brush border membrane vesicles from the terminal ileum of male New Zealand rabbits (Mg2+ precipitation method)
T1 sequence (Q28727 1-347): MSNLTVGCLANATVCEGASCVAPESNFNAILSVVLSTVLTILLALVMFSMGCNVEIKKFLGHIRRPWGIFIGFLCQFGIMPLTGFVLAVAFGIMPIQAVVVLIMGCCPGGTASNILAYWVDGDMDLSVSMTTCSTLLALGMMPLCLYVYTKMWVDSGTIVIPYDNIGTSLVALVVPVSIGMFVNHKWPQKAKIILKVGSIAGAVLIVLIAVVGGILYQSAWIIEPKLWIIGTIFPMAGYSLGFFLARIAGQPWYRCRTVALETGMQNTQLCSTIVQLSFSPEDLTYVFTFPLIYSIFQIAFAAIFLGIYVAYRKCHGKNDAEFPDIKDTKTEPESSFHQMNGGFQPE
Experiment: Inhibition of [³H]-taurocholate uptake into brush border membrane vesicles of rabbit ileum (membrane filtration technique)
Type: biochemical, Kaninchen
Conditions: 50 µM Taurocholat; for IC50Na-TCDC[µmol] / IC50Na-Substanz[µmol]: quotient of IC50Na of reference Taurochenodesoxycholat (TCDC) and IC50Na of test substance, Na⁺-dependent transport part (difference Na-T-P minus K-T-P); for IC50-TCDC[µmol] / IC50-Substanz[µmol]: quotient of IC50 of reference Taurochenodesoxycholat (TCDC) and IC50 of test substance, [³H]-Taurocholat uptake, usually 1 min incubation
From the text: Die biologische Prüfung der erfindungsgemäßen Verbindungen erfolgte durch Ermittlung der Hemmung der [³H]-Taurocholataufnahme in Bürstensaummembranvesikel des Ileums von Kaninchen. Der Hemmtest wurde wie folgt durchgeführt:
1. Präparation von Bürstensaummembranvesikeln aus dem Ileum von Kaninchen
Die Präparation von Bürstensaummembranvisikeln aus den Darmzellen des Dünndarm erfolgte mit der sogenannten Mg²⁺-Präzipitationsmethode. Männliche Neuseeland-Kaninchen (2 bis 2,5 kg Körpergewicht) wurden durch intravenöse Injektion von 0,5 ml einer wäßrigen Lösung von 2,5 mg Tetracain HCl, 100 T 61^R und 25 mg Mebezoniumjodid getötet. Der Dünndarm wurde entnommen und mit eiskalter physiologischer Kochsalzlösung gespült. Die terminalen 7/10 des Dünndarms (gemessen in oral rectaler Richtung, d. h. das terminale Ileum, welches das aktive Na⁺-abhängige Gallensäuretransportsystem enthält) wurden zur Präparation der Bürstensaummembranvesikel verwendet. Die Därme wurden in Kunststoffbeuteln unter Stickstoff bei -80°C eingefroren. Zur Präparation der Membranvesikel wurden die eingefrorenen Därme bei 30°C im Wasserbad aufgetaut. Die Mucosa wurde abgeschabt und in 60 ml eiskaltem 12 mM Tris/HCl-Puffer (pH 7,1)/300 mM Mannit, 5 mM EGTA/10 mg/l Phenylmethylsulfonylfluorid/1 mg/l Trypsin Inhibitor v. Sojabohnen (32 U/mg)/0,5 mg/l Trypsin Inhibitor v. Rinderlunge (193 U/mg)15 mg/l Bacitracin suspendiert. Nach dem Verdünnen auf 300 ml mit eiskaltem destilliertem Wasser wurde mit einem Ultraturrax (18-Stab, IKA Werk Staufen, BRD) 3 Minuten bei 75 % max. Leistung unter Eiskühlung homogenisiert. Nach Zugabe von 3 ml 1 M MgCl₂-Lösung (Endkonzentration 10 mM) ließ man exakt 1 Minute bei 0°C stehen. Durch Zugabe von Mg²⁺ aggregieren die Zellmembranen und präzipitieren mit Ausnahme der Bürstensaummembranen. Nach einer 15-minütigen Zentrifugation bei 3000 x g (5000 rpm, SS-34-Rotor) wurde der Niederschlag verworfen und der Überstand, der die Bürstensaummembranen enthält, 30 Minuten bei […] (15000 rpm, SS-34-Rotor) zentrifugiert. Der Überstand wurde verworfen, der Niederschlag in 60 ml 12 mM Tris/HCl-Puffer (pH 7,1)/60 mM Mannit, 5 mM EGTA mit einem Potter Elvejhem Homogenisator (Braun, Melsungen, 900 rpm, 10 Hübe) rehomogenisiert. Nach Zugabe von 0,1 ml 1 M MgCl₂-Lösung und 15-minütiger Inkubationszeit bei 0°C wurde erneut 15 Minuten bei 3000 x g zentrifugiert. Der Überstand wurde anschließend nochmals 30 Minuten bei 46000 x g (15000 rpm, SS-34-Rotor) zentrifugiert. Der Niederschlag wurde in 30 ml 10 mM Tris/Hepes-Puffer (pH 7,4)/300 mM Mannit aufgenommen und durch 20 Hübe in einem Potter Elvejhem Homogenisator bei 1000 rpm homogen resuspendiert. Nach 30 minütiger Zentrifugation bei 48000 x g (20000 rpm, SS-34-Rotor) wurde der Niederschlag in 0,5 bis 2 ml Tris/Hepes-Puffer (pH 7,4)/280 mM Mannit (Endkonzentration 20 mg/ml) aufgenommen und mit Hilfe einer Tuberkulinspritze mit einer 27 Gauge-Nadel resuspendiert. Die Vesikel wurden entweder unmittelbar nach der Präparation für Transportuntersuchungen verwendet oder bei -196°C in 4 mg Portionen in flüssigem Stickstoff aufbewahrt.
2. Hemmung der Na⁺-abhängigen [³H]Taurocholat-Aufnahme in Bürstensaummembranvesikel des Ileums
Die Aufnahme von Substraten in die vorstehend beschriebenen Bürstensaummembranvesikel wurde mittels der sogenannten Membranfiltrationstechnik bestimmt. 10 µl der Vesikelsuspension (100 µg Protein) wurden als Tropfen an die Wand eines Polystyrolinkubationsröhrchens (11 x 70 mm) pipettiert, welches das Inkubationsmedium mit den entsprechenden Liganden enthielt (90 µl). Das Inkubationsmedium enthielt 0,75 µl = 0,75 µCi [³H(G)]-Taurocholat (spezifische Aktivität: 2,1 Ci/mMol) /0,5 µl 10 mM Taurocholat/8,75 µl Natrium-Transport-Puffer (10 mM Tris/Hepes, (pH 7,4)/100 mM Mannit/100 mM NaCl) (Na-T-P) bzw. 8,75 µl Kalium-Transport-Puffer (10 mM Tris/Hepes (pH 7,4)/100 mM Mannit/100 mM KCl) (K-T-P) und 80 µl der betreffenden Inhibitorlösung, je nach Experiment in Na-T-Puffer bzw. K-T-Puffer gelöst. […]

## C[C@H](CCC(=O)NCCCNC(=O)CCC(=O)NCCO[C@@H]1C[C@@H]2C[C@H](O)CC[C@]2(C)[C@H]2C[C@H](O)[C@]3(C)[C@@H]([C@H](C)CCC(=O)O)CC[C@H]3[C@H]12)[C@H]1CC[C@H]2[C@@H]3[C@H](O)C[C@@H]4C[C@H](O)CC[C@]4(C)[C@H]3C[C@H](O)[C@]12C [Beispiel 32]
  IC50Na-TCDC[µmol] / IC50Na-Substanz[µmol]: 0,80
  IC50-TCDC[µmol] / IC50-Substanz[µmol]: 1,00

## C[C@H](CCC(=O)N[C@H]1C[C@@H]2C[C@H](O)CC[C@]2(C)[C@H]2C[C@H](O)[C@]3(C)[C@@H]([C@H](C)CCC(=O)O)CC[C@H]3[C@H]12)[C@H]1CC[C@H]2[C@@H]3[C@H](O)C[C@@H]4C[C@H](O)CC[C@]4(C)[C@H]3C[C@H](O)[C@]12C [Beispiel 26]
  IC50Na-TCDC[µmol] / IC50Na-Substanz[µmol]: 0,29

## C[C@H](CCC(=O)N[C@H]1C[C@@H]2C[C@H](O)CC[C@]2(C)[C@H]2C[C@H](O)[C@]3(C)[C@@H]([C@H](C)CCC(=O)NCCS(=O)(=O)O)CC[C@H]3[C@H]12)[C@H]1CC[C@H]2[C@@H]3[C@H](O)C[C@@H]4C[C@H](O)CC[C@]4(C)[C@H]3C[C@H](O)[C@]12C [Beispiel 39]
  IC50Na-TCDC[µmol] / IC50Na-Substanz[µmol]: 1,05
  IC50-TCDC[µmol] / IC50-Substanz[µmol]: 0,92

## C[C@H](CCC(=O)NCCO[C@@H]1C[C@@H]2C[C@H](O)CC[C@]2(C)[C@H]2C[C@H](O)[C@]3(C)[C@@H]([C@H](C)CCC(=O)O)CC[C@H]3[C@H]12)[C@H]1CC[C@H]2[C@@H]3[C@H](O)C[C@@H]4C[C@H](O)CC[C@]4(C)[C@H]3C[C@H](O)[C@]12C [Beispiel 30]
  IC50Na-TCDC[µmol] / IC50Na-Substanz[µmol]: 0,85
  IC50-TCDC[µmol] / IC50-Substanz[µmol]: 0,93

## C[C@H](CCC(=O)NCCO[C@@H]1C[C@@H]2C[C@H](O)CC[C@]2(C)[C@H]2C[C@H](O)[C@]3(C)[C@@H]([C@H](C)CCC(=O)NCCS(=O)(=O)O)CC[C@H]3[C@H]12)[C@H]1CC[C@H]2[C@@H]3[C@H](O)C[C@@H]4C[C@H](O)CC[C@]4(C)[C@H]3C[C@H](O)[C@]12C [Beispiel 43]
  IC50Na-TCDC[µmol] / IC50Na-Substanz[µmol]: 0,96
  IC50-TCDC[µmol] / IC50-Substanz[µmol]: 1,18

## C[C@H](CCC(=O)N[C@H]1C[C@@H]2C[C@H](O)CC[C@]2(C)[C@H]2C[C@H](O)[C@]3(C)[C@@H]([C@H](C)CCC(=O)O)CC[C@H]3[C@H]12)[C@H]1CC[C@H]2[C@@H]3[C@H](O)C[C@@H]4C[C@H](O)CC[C@]4(C)[C@H]3CC[C@]12C [Beispiel 27]
  IC50Na-TCDC[µmol] / IC50Na-Substanz[µmol]: 0,44
  IC50-TCDC[µmol] / IC50-Substanz[µmol]: 0,64

## COC(=O)CC[C@@H](C)[C@H]1CC[C@H]2[C@@H]3[C@H](OCCNC(=O)CCC(=O)NCCCNC(=O)CC[C@@H](C)[C@H]4CC[C@H]5[C@@H]6[C@H](O)C[C@@H]7C[C@H](OC(c8ccccc8)c8ccccc8)CC[C@]7(C)[C@H]6C[C@H](O)[C@]45C)C[C@@H]4C[C@H](OC(C)=O)CC[C@]4(C)[C@H]3C[C@H](O)[C@]12C [Beispiel 20]
  IC50Na-TCDC[µmol] / IC50Na-Substanz[µmol]: 0,12

## C[C@H](CCC(=O)N[C@H]1C[C@@H]2C[C@H](O)CC[C@]2(C)[C@H]2C[C@H](O)[C@]3(C)[C@@H]([C@H](C)CCC(=O)O)CC[C@H]3[C@H]12)[C@H]1CC[C@H]2[C@@H]3[C@@H](O)C[C@@H]4C[C@H](O)CC[C@]4(C)[C@H]3CC[C@]12C [Beispiel 28]
  IC50Na-TCDC[µmol] / IC50Na-Substanz[µmol]: 0,43
  IC50-TCDC[µmol] / IC50-Substanz[µmol]: 0,54

## C[C@H](CCC(=O)N[C@H]1C[C@@H]2C[C@H](O)CC[C@]2(C)[C@H]2C[C@H](O)[C@]3(C)[C@@H]([C@H](C)CCC(=O)O)CC[C@H]3[C@H]12)[C@H]1CC[C@H]2[C@@H]3CC[C@@H]4C[C@H](O)CC[C@]4(C)[C@H]3CC[C@]12C [Beispiel 29]
  IC50Na-TCDC[µmol] / IC50Na-Substanz[µmol]: 0,17
  IC50-TCDC[µmol] / IC50-Substanz[µmol]: 0,23

## C[C@H](CCC(=O)N[C@H]1C[C@@H]2C[C@H](O)CC[C@]2(C)[C@H]2C[C@H](O)[C@]3(C)[C@@H]([C@H](C)CCC(=O)NCCS(=O)(=O)O)CC[C@H]3[C@H]12)[C@H]1CC[C@H]2[C@@H]3[C@H](O)C[C@@H]4C[C@H](O)CC[C@]4(C)[C@H]3CC[C@]12C [Beispiel 40]
  IC50Na-TCDC[µmol] / IC50Na-Substanz[µmol]: 0,52
  IC50-TCDC[µmol] / IC50-Substanz[µmol]: 0,54
